The target in this assay is T1, HCMV polymerase (Human cytomegalovirus, UniProt P08546).
T1 construct: made in house; host or cells: SF-9 insect cells infected with recombinant baculovirus
T1 sequence (P08546 whole entry): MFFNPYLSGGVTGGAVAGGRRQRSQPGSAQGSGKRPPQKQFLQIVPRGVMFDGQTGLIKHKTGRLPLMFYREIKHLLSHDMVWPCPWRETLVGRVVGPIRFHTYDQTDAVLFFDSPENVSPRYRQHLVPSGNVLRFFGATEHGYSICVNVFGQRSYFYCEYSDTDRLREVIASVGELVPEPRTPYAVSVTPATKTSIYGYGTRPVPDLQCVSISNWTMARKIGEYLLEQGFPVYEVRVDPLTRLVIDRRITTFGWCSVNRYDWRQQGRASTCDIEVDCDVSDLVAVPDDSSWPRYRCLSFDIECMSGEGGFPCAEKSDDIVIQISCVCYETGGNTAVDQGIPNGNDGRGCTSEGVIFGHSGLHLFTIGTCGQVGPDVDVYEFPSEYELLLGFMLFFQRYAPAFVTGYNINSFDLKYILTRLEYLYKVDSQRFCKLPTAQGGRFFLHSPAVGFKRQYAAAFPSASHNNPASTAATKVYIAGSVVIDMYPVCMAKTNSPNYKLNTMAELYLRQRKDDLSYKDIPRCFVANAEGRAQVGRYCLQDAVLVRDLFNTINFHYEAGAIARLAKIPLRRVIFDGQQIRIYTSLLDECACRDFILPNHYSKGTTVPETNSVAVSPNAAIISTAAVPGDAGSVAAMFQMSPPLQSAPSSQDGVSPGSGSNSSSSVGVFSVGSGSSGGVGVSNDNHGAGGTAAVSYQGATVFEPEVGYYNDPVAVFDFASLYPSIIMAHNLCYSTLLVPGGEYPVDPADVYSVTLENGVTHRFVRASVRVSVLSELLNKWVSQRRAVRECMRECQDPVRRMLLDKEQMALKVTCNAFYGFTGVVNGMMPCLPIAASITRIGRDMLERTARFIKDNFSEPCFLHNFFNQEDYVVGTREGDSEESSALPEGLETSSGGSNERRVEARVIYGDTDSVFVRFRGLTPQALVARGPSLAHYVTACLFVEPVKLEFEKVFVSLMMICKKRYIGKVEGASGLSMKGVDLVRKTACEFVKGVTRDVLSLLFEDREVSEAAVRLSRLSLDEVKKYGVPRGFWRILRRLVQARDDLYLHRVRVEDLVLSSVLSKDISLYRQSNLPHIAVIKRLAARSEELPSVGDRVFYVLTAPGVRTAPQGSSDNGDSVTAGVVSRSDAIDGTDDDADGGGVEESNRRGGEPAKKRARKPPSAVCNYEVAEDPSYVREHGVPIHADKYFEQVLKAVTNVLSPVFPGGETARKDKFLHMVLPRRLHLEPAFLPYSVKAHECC
The assay can be described thus: HCMV polymerase assay (scintillation proximity assay). The following applies: percentage of inhibition at 25 μM concentration in CMV polymerase assay. It counts as biochemical. The protocol:
The compounds of the present invention are tested in an polymerase assay to show activity described below, which is indicative of a compound's activity and thus of its use as an anti-viral agent.
The HCMV polymerase assay is performed using a scintillation proximity assay (SPA) as described in several references, such as N. D. Cook, et al., Pharmaceutical Manufacturing International, pages 49-53 (1992); K. Takeuchi, Laboratory Practice, September issue (1992); U.S. Pat. No. 4,568,649 (1986); which are incorporated by reference herein. Reactions are performed in 96-well plates. The assay is conducted in 100 μl volume with 5.4 mM HEPES (pH 7.5), 11.7 mM KCl, 4.5 mM MgCl2, 0.36 mg/ml BSA, and 90 nM ^3 H-dTTP. Assays are run with and without CHAPS, (3-[(3-Cholamidopropyl)-dimethylammonio]-1-propanesulfonate) at a final concentration of 2 mM. HCMV is diluted in enzyme dilution buffer containing 50% glycerol, 250 mM NaCl, 10 mM HEPES (pH 7.5), 100 μg/ml BSA, and 0.01% sodium azide. The HCMV polymerase, which is expressed in recombinant baculovirus-infected SF-9 cells and purified according to literature procedures, is added at 10% (or 10 μl) of the final reaction volume, i.e., 100 μl. Compounds are diluted in 50% DMSO and 10 μl are added to each well. Control wells contain an equivalent concentration of DMSO. Unless noted otherwise, reactions are initiated via the addition of 6 nM biotinylated poly(dA)-oligo(dT) template/primer to reaction mixtures containing the enzyme, substrate, and compounds of interest. Plates are incubated in a 25° C. or 37° C. H2 O bath and terminated via the addition of 40 μl/reaction of 0.5 M EDTA (pH 8) per well. Reactions are terminated within the time-frame during which substrate incorporation is linear and varied depending upon the enzyme and conditions used, i.e., 30 min. for HCMV polymerase. Ten μl of streptavidin-SPA beads (20 mg/ml in PBS/10% glycerol) are added following termination of the reaction. Plates are incubated 10 min. at 37° C., then equilibrated to room temperature, and counted on a Packard Topcount.
In TABLE 1, "MS" refers to mass spectral data, "% inhib" refers to percentage of inhibition at 25 μM concentration in CMV polymerase assay.
(Scintillation proximity formats need no separation of bound from free tracer.)
The inhibition is the drop in the measured response relative to a control, in per cent. A low value points to a weak effect. As for `NS(=O)(=O)c1ccc(CNc2nnc(NC(=O)c3c(Cl)cccc3Cl)s2)cc1` [compound 30, N-(5-{[4-(aminosulfonyl)benzyl]amino}-1,3,4-thiadiazol-2-yl)-2,6-dichlorobenzamide], the inhibition at 25 µM is 91.8%.

`CCCCCCCC/C=C/CCCCCCCC(=O)Nc1nnc(NC2CCCCCC2)s1` [compound 31, (E)-N-[5-(cycloheptylamino)-1,3,4-thiadiazol-2-yl]-9-octadecenamide] yielded an inhibition at 25 µM of 91.8%.

In the case of `NS(=O)(=O)c1ccc(CNc2nnc(NC(=O)/C=C/c3ccccc3)s2)cc1` [compound 32, (E)-N-(5-{[4-(aminosulfonyl)benzyl]amino}-1,3,4-thiadiazol-2-yl)-3-phenyl-2-propenamide], at 25 µM the inhibition was 90.6%.

`O=C(Nc1nnc(NCCSc2ccccc2)s1)c1ccc2c(c1)C(=O)OC2=O` [compound 33, 1,3-dioxo-N-(5-{[2-(phenylsulfanyl)ethyl]amino}-1,3,4-thiadiazol-2-yl)-1,3-dihydro-2-benzofuran-5-carboxamide] displayed an inhibition at 25 µM of 90.1%.

In turn, `O=C(/C=C/c1ccccc1Cl)Nc1nnc(NCC2CC2)s1` [compound 34, (E)-3-(2-chlorophenyl)-N-{5-[(cyclopropylmethyl)amino]-1,3,4-thiadiazol-2-yl}-2-propenamide] registered an inhibition at 25 µM of 89.9%.

Regarding `CC(C)c1cc(C(C)C)c(C(=O)Nc2nnc(NCc3ccc(S(N)(=O)=O)cc3)s2)c(C(C)C)c1` [compound 35, N-(5-{[4-(aminosulfonyl)benzyl]amino}-1,3,4-thiadiazol-2-yl)-2,4,6-triisopropylbenzamide], the inhibition at 25 µM came to 89.7%.

Regarding `CC(C)c1cc(C(C)C)c(C(=O)Nc2nnc(NCCCNC3CCCCC3)s2)c(C(C)C)c1` [compound 36, N-(5-{[3-(cyclohexylamino)propyl]amino}-1,3,4-thiadiazol-2-yl)-2,4,6-triisopropylbenzamide], the inhibition at 25 µM amounted to 87.6%.

As for `O=C(Nc1nnc(NCCCNC2CCCCC2)s1)c1c(Cl)cccc1Cl` [compound 37, 2,6-dichloro-N-(5-{[3-(cyclohexylamino)propyl]amino}-1,3,4-thiadiazol-2-yl)benzamide], the inhibition at 25 µM is 87.4%.

`CCCCCCCC/C=C/CCCCCCCC(=O)Nc1nnc(NCC(c2ccccc2)c2ccccc2)s1` [compound 38, (E)-N-{5-[(2,2-diphenylethyl)amino]-1,3,4-thiadiazol-2-yl}-9-octadecenamide]: testing at 25 µM gave an inhibition of 87.3%.

`O=C(Nc1nnc(NCc2cccs2)s1)c1ccc2c(c1)C(=O)OC2=O` [compound 39, 1,3-dioxo-N-{5-[(2-thienylmethyl)amino]-1,3,4-thiadiazol-2-yl}-1,3-dihydro-2-benzofuran-5-carboxamide] showed an inhibition at 25 µM of 87.1%.

`O=C(Nc1nnc(NC2CCc3ccccc32)s1)c1ccc2c(c1)C(=O)OC2=O` (stereo not drawn) [compound 40, N-[5-(2,3-dihydro-1H-inden-1-ylamino)-1,3,4-thiadiazol-2-yl]-1,3-dioxo-1,3-dihydro-2-benzofuran-5-carboxamide]: at 25 µM the inhibition was 86.3%.

For the molecule `CCCCCCCC/C=C/CCCCCCCC(=O)Nc1nnc(NCCc2cccs2)s1` [compound 41, (E)-N-(5-{[2-(2-thienyl)ethyl]amino}-1,3,4-thiadiazol-2-yl)-9-octadecenamide], the inhibition at 25 µM was found to be 85.7%.

Take `CCCCCCCC/C=C/CCCCCCCC(=O)Nc1nnc(NCc2cccs2)s1` [compound 42, (E)-N-{5-[(2-thienylmethyl)amino]-1,3,4-thiadiazol-2-yl}-9-octadecenamide]: testing at 25 µM gave an inhibition of 84.6%.

As to `CCOc1ccc2ccccc2c1C(=O)Nc1nnc(NCc2ccc3c(c2)OCO3)s1` [compound 43, N-{5-[(1,3-benzodioxol-5-ylmethyl)amino]-1,3,4-thiadiazol-2-yl}-2-ethoxy-1-naphthamide], 25 µM produced 83.9% inhibition.

Turning to `O=C(Nc1nnc(NCc2cccc3ccccc23)s1)c1ccc([N+](=O)[O-])o1` [compound 44, N-{5-[(1-naphthylmethyl)amino]-1,3,4-thiadiazol-2-yl}-5-nitro-2-furamide], 25 µM produced 83.3% inhibition.

For `CCOc1ccc2ccccc2c1C(=O)Nc1nnc(NC2CCN(Cc3ccccc3)CC2)s1` [compound 45, N-{5-[(1-benzyl-4-piperidinyl)amino]-1,3,4-thiadiazol-2-yl}-2-ethoxy-1-naphthamide], the inhibition at 25 µM was found to be 83.1%.

For `N#Cc1ccc(C(=O)Nc2nnc(NCCC(c3ccccc3)c3ccccc3)s2)cc1` [compound 46, 4-cyano-N-{5-[(3,3-diphenylpropyl)amino]-1,3,4-thiadiazol-2-yl}benzamide], testing at 25 µM gave an inhibition of 82.3%.

The molecule `O=C(Nc1nnc(NCCc2c[nH]c3ccccc23)s1)c1ccc([N+](=O)[O-])o1` [compound 47, N-(5-{[2-(1H-indol-3-yl)ethyl]amino}-1,3,4-thiadiazol-2-yl)-5-nitro-2-furamide] gave an inhibition at 25 µM of 81.6%.

`CCCCCCCC/C=C/CCCCCCCC(=O)Nc1nnc(NCc2ccc(F)cc2)s1` [compound 48, (E)-N-{5-[(4-fluorobenzyl)amino]-1,3,4-thiadiazol-2-yl}-9-octadecenamide] had an inhibition at 25 µM of 81.5%.

Turning to `CCCCCCCCCCCNc1nnc(NC(=O)c2ccc(S(=O)(=O)F)cc2)s1` [compound 49, 4-({[5-(undecylamino)-1,3,4-thiadiazol-2-yl]amino}carbonyl)benzenesulfonyl fluoride], the “% Inhib” value is recorded as 80.3%.

`NS(=O)(=O)c1ccc(CCNc2nnc(NC(=O)/C=C/c3ccccc3)s2)cc1` [compound 50, (E)-N-(5-{[4-(aminosulfonyl)phenethyl]amino}-1,3,4-thiadiazol-2-yl)-3-phenyl-2-propenamide] showed an inhibition at 25 µM of 79.8%.

For `CCCCCCCC/C=C/CCCCCCCC(=O)Nc1nnc(NCCCCCCCCCCC)s1` [compound 51, (E)-N-[5-(undecylamino)-1,3,4-thiadiazol-2-yl]-9-octadecenamide], 25 µM produced 79.5% inhibition.

In turn, `O=C(Nc1nnc(NCCCCc2ccccc2)s1)c1cc2ccccc2s1` [compound 52, N-{5-[(4-phenylbutyl)amino]-1,3,4-thiadiazol-2-yl}-1-benzothiophen-2-carboxamide] yielded an inhibition at 25 µM of 78.7%.

`CCCCCCCC/C=C/CCCCCCCC(=O)Nc1nnc(NCc2ccc3c(c2)OCO3)s1` [compound 53, (E)-N-{5-[(1,3-benzodioxol-5-ylmethyl)amino]-1,3,4-thiadiazol-2-yl}-9-octadecenamide] gave an inhibition at 25 µM of 77.9%.

With `O=C(Nc1nnc(NCc2ccncc2)s1)c1ccc2c(c1)C(=O)OC2=O` [compound 54, 1,3-dioxo-N-{5-[(4-pyridinylmethyl)amino]-1,3,4-thiadiazol-2-yl}-1,3-dihydro-2-benzofuran-5-carboxamide], the inhibition at 25 µM amounted to 77.7%.

`CCOc1ccc2ccccc2c1C(=O)Nc1nnc(NCC(c2ccccc2)c2ccccc2)s1` [compound 55, N-{5-[(2,2-diphenylethyl)amino]-1,3,4-thiadiazol-2-yl}-2-ethoxy-1-naphthamide] showed an inhibition at 25 µM of 77.6%.

As to `O=C(Nc1nnc(NCC(c2ccccc2)c2ccccc2)s1)c1c(Cl)cccc1Cl` [compound 56, 2,6-dichloro-N-{5-[(2,2-diphenylethyl)amino]-1,3,4-thiadiazol-2-yl}benzamide], the inhibition at 25 µM is 77.4%.
